Laboratory results taken from publication PMC8938411, “Novel functional insights into a modified sugar-binding protein from Synechococcus MITS9220” (Scientific Reports, 2022).

Target: T1, MsBP (modified sugar-binding protein, MITS9220_00117), zinc-bound Zn-MsBP
T1 construct: Tat signal peptide removed, N-terminal hexahistidine tag with thrombin cleavage site (pET15-b)
Test: ITC of purified MsBP pre-incubated with Zn2+ ([…]x molar excess); supported by DSF (TM […] °C with Zn and FBP)
Parameters: species or system Synechococcus sp. MIT S9220

O=P(O)(O)OC[C@H]1OC(O)(COP(=O)(O)O)[C@@H](O)[C@@H]1O (stereo partly shown) [FBP, fructose-1,6-bisphosphate]
Kd: 5.8 µM
